{
  "source": "patent US12077503B2",
  "about": "“Substituted cyclic amides and their use as herbicides” (FMC CORPORATION, priority 2015, dated 2024)",
  "type_in_all_cases": "in vivo",
  "key": {"[1]": {"tested_on": "giant foxtail (Setaria faberi)", "experiment": "Test G Pre-Emergence Protocol", "details": "Setaria faberi, pre-emergence, 312 h, evaluated after 13 days", "procedure,_shortened": "(§1)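 Under a 24/16° C day/night regime with 14 h light and 65% humidity, sown pots were sprayed after one day with compound (15.625, 62.5 or 250 g/ha; 50:50 acetone/water, 0.5% Tween 20). Damage was assessed visually 13 days later, 0 to 100.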"}, "[2]": {"tested_on": "ivy-leaved morning glory (Ipomoea hederacea)", "experiment": "Test G Pre-Emergence Protocol", "details": "Ipomoea, pre-emergence, 312 h, evaluated after 13 days", "procedure,_shortened": "as §1"}, "[3]": {"tested_on": "velvetleaf (Abutilon theophrasti)", "experiment": "Test G Pre-Emergence Protocol", "details": "Abutilon theophrasti, pre-emergence, 312 h, evaluated after 13 days", "procedure,_shortened": "as §1"}, "[4]": {"tested_on": "redroot pigweed (Amaranthus retroflexus)", "experiment": "Test G Pre-Emergence Protocol", "details": "Amaranthus retroflexus, pre-emergence, 312 h, evaluated after 13 days", "procedure,_shortened": "as §1"}, "[5]": {"tested_on": "barnyardgrass (Echinochloa crus-galli)", "experiment": "Test G Pre-Emergence Protocol", "details": "Echinochloa crus-galli, pre-emergence, 312 h, evaluated after 13 days", "procedure,_shortened": "as §1"}, "[6]": {"tested_on": "corn (Zea mays)", "experiment": "Test G Pre-Emergence Protocol", "details": "Zea mays, pre-emergence, 312 h, evaluated after 13 days", "procedure,_shortened": "as §1"}, "[7]": {"tested_on": "giant foxtail (Setaria faberi)", "experiment": "Test G Post-Emergence Protocol", "details": "Setaria faberi, post-emergence, 312 h", "procedure,_shortened": "(§2)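 Values are percent visual injury at 13 days after treatment (0 none, 100 total). Treatment was a post-emergence spray at 15.625, 62.5 or 250 g/ha on 8-day-old pot plants kept at 24/16 °C.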"}, "[8]": {"tested_on": "ivy-leaved morning glory (Ipomoea hederacea)", "experiment": "Test G Post-Emergence Protocol", "details": "Ipomoea, post-emergence, 312 h", "procedure,_shortened": "as §2"}, "[9]": {"tested_on": "velvetleaf (Abutilon theophrasti)", "experiment": "Test G Post-Emergence Protocol", "details": "Abutilon theophrasti, post-emergence, 312 h", "procedure,_shortened": "as §2"}, "[10]": {"tested_on": "redroot pigweed (Amaranthus retroflexus)", "experiment": "Test G Post-Emergence Protocol", "details": "Amaranthus retroflexus, post-emergence, 312 h", "procedure,_shortened": "as §2"}, "[11]": {"tested_on": "barnyardgrass (Echinochloa crus-galli)", "experiment": "Test G Post-Emergence Protocol", "details": "Echinochloa crus-galli, post-emergence, 312 h", "procedure,_shortened": "as §2"}, "[12]": {"tested_on": "corn (Zea mays)", "experiment": "Test G Post-Emergence Protocol", "details": "Zea mays, post-emergence, 312 h", "procedure,_shortened": "as §2"}},
  "data": [
    {"smiles": "CN1C[C@@H](c2ccc(C(F)(F)F)cc2)[C@H](C(=O)Nc2cccc(F)c2C(F)(F)F)C1=O", "note": "(racemic) [Compound 1609]", "values": [
      {"measurement": "pest or weed control at 15.625 g/ha", "setting": "[1]; 15.625 g ai/ha, read-out: Foxtail, Giant damage rating (100=total damage to plant; 0=no damage to plant)", "result": 70, "unit": "%"},
      {"measurement": "pest or weed control at 62.5 g/ha", "setting": "[1]; 62.5 g ai/ha, 100=total damage to plant, 0=no damage to plant, read-out: plant damage rating, Foxtail, Giant", "result": 80, "unit": "%"},
      {"measurement": "pest or weed control at 250 g/ha", "setting": "[1]; 250 g ai/ha, read-out: Foxtail, Giant damage rating (100=total damage to plant; 0=no damage to plant)", "result": 80, "unit": "%"},
      {"measurement": "pest or weed control at 15.625 g/ha", "setting": "[2]; 15.625 g ai/ha, read-out: Morning-glory, Ivy-leaved damage rating (100=total damage to plant; 0=no damage to plant)", "result": 10, "unit": "%"},
      {"measurement": "pest or weed control at 62.5 g/ha", "setting": "[2]; 62.5 g ai/ha, 100=total damage to plant, 0=no damage to plant, read-out: plant damage rating, Morningglory, Ivy-leaved", "result": 20, "unit": "%"},
      {"measurement": "pest or weed control at 250 g/ha", "setting": "[2]; 250 g ai/ha, read-out: Morningglory, Ivy-leaved damage rating (100=total damage to plant; 0=no damage to plant)", "result": 70, "unit": "%"},
      {"measurement": "pest or weed control at 15.625 g/ha", "setting": "[3]; 15.625 g ai/ha, read-out: Velvetleaf damage rating (100=total damage to plant; 0=no damage to plant)", "result": 10, "unit": "%"},
      {"measurement": "pest or weed control at 62.5 g/ha", "setting": "[3]; 62.5 g ai/ha, 100=total damage to plant, 0=no damage to plant, read-out: plant damage rating, Velvetleaf", "result": 10, "unit": "%"},
      {"measurement": "pest or weed control at 250 g/ha", "setting": "[3]; 250 g ai/ha, read-out: Velvetleaf damage rating (100=total damage to plant; 0=no damage to plant)", "result": 30, "unit": "%"},
      {"measurement": "pest or weed control at 15.625 g/ha", "setting": "[4]; 15.625 g ai/ha, read-out: Pigweed, Redroot damage rating (100=total damage to plant; 0=no damage to plant)", "result": 20, "unit": "%"},
      {"measurement": "pest or weed control at 62.5 g/ha", "setting": "[4]; 62.5 g ai/ha, 100=total damage to plant, 0=no damage to plant, read-out: plant damage rating, Pigweed, Redroot", "result": 40, "unit": "%"},
      {"measurement": "pest or weed control at 250 g/ha", "setting": "[4]; 250 g ai/ha, read-out: Pigweed, Redroot damage rating (100=total damage to plant; 0=no damage to plant)", "result": 70, "unit": "%"},
      {"measurement": "pest or weed control at 15.625 g/ha", "setting": "[5]; 15.625 g ai/ha, read-out: Barnyard grass damage rating (100=total damage to plant; 0=no damage to plant)", "result": 20, "unit": "%"},
      {"measurement": "pest or weed control at 62.5 g/ha", "setting": "[5]; 62.5 g ai/ha, 100=total damage to plant, 0=no damage to plant, read-out: plant damage rating, Barnyardgrass", "result": 50, "unit": "%"},
      {"measurement": "pest or weed control at 250 g/ha", "setting": "[5]; 250 g ai/ha, read-out: Barnyardgrass damage rating (100=total damage to plant; 0=no damage to plant)", "result": 80, "unit": "%"},
      {"measurement": "plant injury at 15.625 g/ha", "setting": "[6]; 15.625 g ai/ha, read-out: Corn damage rating (100=total damage to plant; 0=no damage to plant)", "result": 0, "unit": "%"},
      {"measurement": "plant injury at 62.5 g/ha", "setting": "[6]; 62.5 g ai/ha, 100=total damage to plant, 0=no damage to plant, read-out: plant damage rating, Corn", "result": 10, "unit": "%"},
      {"measurement": "plant injury at 250 g/ha", "setting": "[6]; 250 g ai/ha, read-out: Corn damage rating (100=total damage to plant; 0=no damage to plant)", "result": 40, "unit": "%"},
      {"measurement": "pest or weed control at 15.625 g/ha", "setting": "[7]; 15.625 g ai/ha, evaluated after 13 days (100=total damage to plant; 0=no damage to plant), read-out: Foxtail, Giant damage rating", "result": 70, "unit": "%"},
      {"measurement": "pest or weed control at 62.5 g/ha", "setting": "[7]; 62.5 g ai/ha, evaluated after 13 days, read-out: Foxtail, Giant damage rating (100=total damage to plant; 0=no damage to plant)", "result": 80, "unit": "%"},
      {"measurement": "pest or weed control at 250 g/ha", "setting": "[7]; 250 g ai/ha, evaluated after 13 days, read-out: damage to plant, Foxtail, Giant (100=total damage to plant; 0=no damage to plant)", "result": 80, "unit": "%"},
      {"measurement": "pest or weed control at 15.625 g/ha", "setting": "[8]; 15.625 g ai/ha, evaluated after 13 days (100=total damage to plant; 0=no damage to plant), read-out: Morningglory, Ivy-leaved damage rating", "result": 20, "unit": "%"},
      {"measurement": "pest or weed control at 62.5 g/ha", "setting": "[8]; 62.5 g ai/ha, evaluated after 13 days, read-out: Morningglory, Ivy-leaved damage rating (100=total damage to plant; 0=no damage to plant)", "result": 20, "unit": "%"},
      {"measurement": "pest or weed control at 250 g/ha", "setting": "[8]; 250 g ai/ha, evaluated after 13 days, read-out: damage to plant, Morningglory, Ivy-leaved (100=total damage to plant; 0=no damage to plant)", "result": 70, "unit": "%"},
      {"measurement": "pest or weed control at 15.625 g/ha", "setting": "[9]; 15.625 g ai/ha, evaluated after 13 days (100=total damage to plant; 0=no damage to plant), read-out: Velvetleaf damage rating", "result": 0, "unit": "%"},
      {"measurement": "pest or weed control at 62.5 g/ha", "setting": "[9]; 62.5 g ai/ha, evaluated after 13 days, read-out: Velvetleaf damage rating (100=total damage to plant; 0=no damage to plant)", "result": 20, "unit": "%"},
      {"measurement": "pest or weed control at 250 g/ha", "setting": "[9]; 250 g ai/ha, evaluated after 13 days, read-out: damage to plant, Velvetleaf (100=total damage to plant; 0=no damage to plant)", "result": 50, "unit": "%"},
      {"measurement": "pest or weed control at 15.625 g/ha", "setting": "[10]; 15.625 g ai/ha, evaluated after 13 days (100=total damage to plant; 0=no damage to plant), read-out: Pigweed, Redroot damage rating", "result": 30, "unit": "%"},
      {"measurement": "pest or weed control at 62.5 g/ha", "setting": "[10]; 62.5 g ai/ha, evaluated after 13 days, read-out: Pigweed, Redroot damage rating (100=total damage to plant; 0=no damage to plant)", "result": 70, "unit": "%"},
      {"measurement": "pest or weed control at 250 g/ha", "setting": "[10]; 250 g ai/ha, evaluated after 13 days, read-out: damage to plant, Pigweed, Redroot (100=total damage to plant; 0=no damage to plant)", "result": 70, "unit": "%"},
      {"measurement": "pest or weed control at 15.625 g/ha", "setting": "[11]; 15.625 g ai/ha, evaluated after 13 days (100=total damage to plant; 0=no damage to plant), read-out: Barnyardgrass damage rating", "result": 20, "unit": "%"},
      {"measurement": "pest or weed control at 62.5 g/ha", "setting": "[11]; 62.5 g ai/ha, evaluated after 13 days, read-out: Barnyardgrass damage rating (100=total damage to plant; 0=no damage to plant)", "result": 70, "unit": "%"},
      {"measurement": "pest or weed control at 250 g/ha", "setting": "[11]; 250 g ai/ha, evaluated after 13 days, read-out: damage to plant, Barnyardgrass (100=total damage to plant; 0=no damage to plant)", "result": 70, "unit": "%"},
      {"measurement": "plant injury at 15.625 g/ha", "setting": "[12]; 15.625 g ai/ha, evaluated after 13 days (100=total damage to plant; 0=no damage to plant), read-out: Corn damage rating", "result": 10, "unit": "%"},
      {"measurement": "plant injury at 62.5 g/ha", "setting": "[12]; 62.5 g ai/ha, evaluated after 13 days, read-out: Corn damage rating (100=total damage to plant; 0=no damage to plant)", "result": 10, "unit": "%"},
      {"measurement": "plant injury at 250 g/ha", "setting": "[12]; 250 g ai/ha, evaluated after 13 days, read-out: damage to plant, Corn (100=total damage to plant; 0=no damage to plant)", "result": 60, "unit": "%"}
    ]}
  ]
}
